Assay results from PubChem BioAssay (NCI).
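How tested: cells in 96-well plates exposed to compound for 48 hours at five concentrations. Definition used: TGI = concentration required for complete inhibition of growth.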

Tests used:
Experiment in all cases: inhibition of tumour cell growth, NCI panel, 48 h
[1] = tested on: 786-0 renal
[2] = tested on: A498 renal
[3] = tested on: A549 NSCLC
[4] = tested on: ACHN renal
[5] = tested on: BT-549 breast
[6] = tested on: CAKI-1 renal
[7] = tested on: CCRF-CEM leukemia
[8] = tested on: COLO 205 colon
[9] = tested on: DU-145 prostate
[10] = tested on: EKVX NSCLC
[11] = tested on: HCC-2998 colon
[12] = tested on: HCT-116 colon
[13] = tested on: HCT-15 colon
[14] = tested on: HL-60(TB) leukemia
[15] = tested on: HOP-62 NSCLC
[16] = tested on: HOP-92 NSCLC
[17] = tested on: HS 578T breast
[18] = tested on: HT29 colon
[19] = tested on: IGROV1 ovarian
[20] = tested on: K-562 leukemia
[21] = tested on: KM12 colon
[22] = tested on: LOX IMVI melanoma
[23] = tested on: M14 melanoma
[24] = tested on: MALME-3M melanoma
[25] = tested on: MDA-MB-231 breast
[26] = tested on: MDA-MB-435
[27] = tested on: MDA-N
[28] = tested on: MOLT-4 leukemia
[29] = tested on: NCI-H226 lung
[30] = tested on: NCI-H23 lung
[31] = tested on: NCI-H460 lung
[32] = tested on: NCI-H522 lung
[33] = tested on: NCI/ADR-RES ovarian
[34] = tested on: OVCAR-3 ovarian
[35] = tested on: OVCAR-4 ovarian
[36] = tested on: OVCAR-5 ovarian
[37] = tested on: OVCAR-8 ovarian
[38] = tested on: PC-3 prostate
[39] = tested on: RPMI-8226 leukemia
[40] = tested on: RXF 393 renal
[41] = tested on: SF-268 CNS
[42] = tested on: SF-295 CNS
[43] = tested on: SF-539 CNS
[44] = tested on: SK-MEL-28 melanoma
[45] = tested on: SK-MEL-5 melanoma
[46] = tested on: SK-OV-3 ovarian
[47] = tested on: SN12C renal
[48] = tested on: SNB-19 CNS
[49] = tested on: SNB-75 CNS
[50] = tested on: SR leukemia
[51] = tested on: SW-620 colon
[52] = tested on: T-47D breast
[53] = tested on: TK-10 renal
[54] = tested on: U251 CNS
[55] = tested on: UACC-257 melanoma
[56] = tested on: UACC-62 melanoma
[57] = tested on: UO-31 renal
[58] = tested on: MCF7 breast
[59] = tested on: SK-MEL-2 melanoma

Measured: TGI

C#CCOCC12C=CC(O1)C1COC(=O)C12 (centres undefined)
not listed: [58] | [59]
> 100 µM: all other assays above

O=C1NC(=S)NC(=O)C1C(c1ccc(Cl)cc1)C1C(=O)NC(=S)NC1=O
not listed: [11] | [17] | [41] | [43] | [46] | [49] | [50]
> 100 µM: all other assays above
